# In patent publication US10252987B2, “Type of antiviral compound” (Institute of Medicinal Biotechnology, Chinese Academy of …, priority 2015, dated 2019):
# Test system: HCV
# Test: anti-HCV activity assay in cell culture (HCV RNA by one-step quantitative RT-PCR)
# Format: cell-based
# Conditions: Hepatitis C virus, Huh7.5, 96 h, compound at 10 μmol/L; Huh7.5 cells infected with HCV virus particles; cultured 96 hrs; HCV RNA in cells vs virus control group; read-out: percent inhibition (%)
# Experimental: The assay results of anti-HCV activity of the compound synthesized according to the present invention in cell culture are shown in Table 1, wherein the molecular weight is calculated by ChemBioDraw 12.0 software from the molecular structure of each compound.
# 100 μL Huh7.5 cells were seeded in 96-well cell culture plate to 1×10^5/mL density, cultured in an incubator at 37° C. under the condition of 5% CO2 and saturated humidity for 6 hrs. Huh7.5 cells were then infected by viral solution containing HCV virus particles, and solutions of compound of the present invention at a concentration of 10 μmol/L liquid were added respectively, cultured for further 96 hrs, and then total RNA was extracted from the cells. Amount of HCV RNA in cells was determined by one-step quantitative RT-PCR, and compared to RNA levels of the virus control group to calculate the inhibition rate of compounds on HCV.
row,Compound,inhibition at 10 µM [%]
1,"CCCN1CCN(c2ccc(C#N)c(CN(CC)c3ccc(Sc4ccccc4)cc3)n2)CC1 [Compound 41, 2-((4-(phenylthio)phenyl)(ethyl)amino)methyl-6-(4-propylpiperazin-1-yl)-3-cyanopyridine]",57
2,"COc1ccc(NCc2cc(N3CCN(C)CC3)ccc2C#N)cc1 [Compound 10, 4-(4-methylpiperazin-1-yl)-2-(p-methoxyphenylamino)methylbenzonitrile]",90
3,"CCc1ccc(NCc2cc(N3CCN(C)CC3)ccc2C#N)cc1 [Compound 13, 4-(4-methylpiperazin-1-yl)-2-(p-ethylphenylamino)methylbenzonitrile]",87
4,"COc1ccc(NCc2cc(N3CCNCC3)ccc2C#N)cc1 [Compound 2, 4-(piperazin-1-yl)-2-(p-methoxyphenylamino)methylbenzonitrile]",89
5,"Cc1ccc(NCc2cc(N3CCCC(N)C3)ccc2C#N)cc1 (centres unmarked) [Compound 6, 4-(3-aminopiperidin-1-yl)-2-(p-methylphenylamino)methylbenzonitrile]",68
